{"source": "PubChem BioAssay AID2060901", "about": "(Molecular Pharmacology Branch, DTP, NCI, 2025);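 note: spheroids exposed to compounds for 7 days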;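 for viability, T/C: 100% = DMSO vehicle control viability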", "system": "422866-222-R5-J1-PDC complex spheroids viability", "experiment": "Anticancer human tumor 422866-222-R5-J1-PDC patient-derived pancreatic adenocarcinoma cell line growth inhibition [RAS]", "conditions": "for IC50: curve of first compound; for viability, T/C: stronger effect = lower value", "in_short": "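Multi-cell-type spheroids: tumor cells plus HUVEC endothelial cells and mesenchymal stem cells. RAS-pathway inhibitors were combined with targeted agents, each dosed in half-log steps down from clinical Cmax, or from 10 microM when Cmax was unknown.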", "data": [{"smiles": "Cc1nc(N2CCC3(CC2)COC(C)C3N)c(CO)nc1Sc1ccnc(N)c1Cl", "note": "(centres undefined) + C#Cc1c(F)ccc2cc(O)cc(-c3ncc4c(N5CC6CCC(C5)N6)nc(OCC56CCCN5CC(F)C6)nc4c3F)c12", "values": [{"measurement": "IC50", "setting": "second compound 0.0316 µM", "value": 328, "unit": "nM"}, {"measurement": "IC50", "setting": "second compound 0.1 µM", "value": 126, "unit": "nM"}, {"measurement": "IC50", "setting": "second compound 0.316 µM", "value": 61.6, "unit": "nM"}, {"measurement": "IC50", "setting": "second compound 1 µM", "value": "< 31.6", "unit": "nM"}, {"measurement": "IC50", "setting": "second compound 3.16 µM", "value": "< 31.6", "unit": "nM"}, {"measurement": "IC50", "setting": "second compound 10 µM", "value": "< 31.6", "unit": "nM"}, {"measurement": "viability, T/C", "setting": "second compound 0.0316 µM, first compound 0.0316 µM", "value": 74.7, "unit": "%"}, {"measurement": "viability, T/C", "setting": "second compound 0.0316 µM, first compound 0.1 µM", "value": 65.3, "unit": "%"}, {"measurement": "viability, T/C", "setting": "second compound 0.0316 µM, first compound 0.316 µM", "value": 49.2, "unit": "%"}, {"measurement": "viability, T/C", "setting": "second compound 0.0316 µM, first compound 1 µM", "value": 42.2, "unit": "%"}, {"measurement": "viability, T/C", "setting": "second compound 0.0316 µM, first compound 3.16 µM", "value": 39.6, "unit": "%"}, {"measurement": "viability, T/C", "setting": "second compound 0.0316 µM, first compound 10 µM", "value": 35.9, "unit": "%"}, {"measurement": "viability, T/C", "setting": "second compound 0.1 µM, first compound 0.0316 µM", "value": 80.5, "unit": "%"}, {"measurement": "viability, T/C", "setting": "second compound 0.1 µM, first compound 0.1 µM", "value": 52.5, "unit": "%"}, {"measurement": "viability, T/C", "setting": "second compound 0.1 µM, first compound 0.316 µM", "value": 38.9, "unit": "%"}, {"measurement": "viability, T/C", "setting": "second compound 0.1 µM, first compound 1 µM", "value": 36.8, "unit": "%"}, {"measurement": "viability, T/C", "setting": "second compound 0.1 µM, first compound 3.16 µM", "value": 34.8, "unit": "%"}, {"measurement": "viability, T/C", "setting": "second compound 0.1 µM, first compound 10 µM", "value": 30.5, "unit": "%"}, {"measurement": "viability, T/C", "setting": "second compound 0.316 µM, first compound 0.0316 µM", "value": 62.4, "unit": "%"}, {"measurement": "viability, T/C", "setting": "second compound 0.316 µM, first compound 0.1 µM", "value": 40.5, "unit": "%"}, {"measurement": "viability, T/C", "setting": "second compound 0.316 µM, first compound 0.316 µM", "value": 33.2, "unit": "%"}, {"measurement": "viability, T/C", "setting": "second compound 0.316 µM, first compound 1 µM", "value": 30.3, "unit": "%"}, {"measurement": "viability, T/C", "setting": "second compound 0.316 µM, first compound 3.16 µM", "value": 29.9, "unit": "%"}, {"measurement": "viability, T/C", "setting": "second compound 0.316 µM, first compound 10 µM", "value": 26.7, "unit": "%"}, {"measurement": "viability, T/C", "setting": "second compound 1 µM, first compound 0.0316 µM", "value": 37.6, "unit": "%"}, {"measurement": "viability, T/C", "setting": "second compound 1 µM, first compound 0.1 µM", "value": 46.7, "unit": "%"}, {"measurement": "viability, T/C", "setting": "second compound 1 µM, first compound 0.316 µM", "value": 24.3, "unit": "%"}, {"measurement": "viability, T/C", "setting": "second compound 1 µM, first compound 1 µM", "value": 22, "unit": "%"}, {"measurement": "viability, T/C", "setting": "second compound 1 µM, first compound 3.16 µM", "value": 24.5, "unit": "%"}, {"measurement": "viability, T/C", "setting": "second compound 1 µM, first compound 10 µM", "value": 20.9, "unit": "%"}, {"measurement": "viability, T/C", "setting": "second compound 3.16 µM, first compound 0.0316 µM", "value": 24.5, "unit": "%"}, {"measurement": "viability, T/C", "setting": "second compound 3.16 µM, first compound 0.1 µM", "value": 23.1, "unit": "%"}, {"measurement": "viability, T/C", "setting": "second compound 3.16 µM, first compound 0.316 µM", "value": 20.3, "unit": "%"}, {"measurement": "viability, T/C", "setting": "second compound 3.16 µM, first compound 1 µM", "value": 16.5, "unit": "%"}, {"measurement": "viability, T/C", "setting": "second compound 3.16 µM, first compound 3.16 µM", "value": 18, "unit": "%"}, {"measurement": "viability, T/C", "setting": "second compound 3.16 µM, first compound 10 µM", "value": 18.3, "unit": "%"}, {"measurement": "viability, T/C", "setting": "second compound 10 µM, first compound 0.0316 µM", "value": 16.5, "unit": "%"}, {"measurement": "viability, T/C", "setting": "second compound 10 µM, first compound 0.1 µM", "value": 19.6, "unit": "%"}, {"measurement": "viability, T/C", "setting": "second compound 10 µM, first compound 0.316 µM", "value": 18, "unit": "%"}, {"measurement": "viability, T/C", "setting": "second compound 10 µM, first compound 1 µM", "value": 14.8, "unit": "%"}, {"measurement": "viability, T/C", "setting": "second compound 10 µM, first compound 3.16 µM", "value": 15, "unit": "%"}, {"measurement": "viability, T/C", "setting": "second compound 10 µM, first compound 10 µM", "value": 16.3, "unit": "%"}]}, {"smiles": "Cc1nc(N2CCC3(CC2)COC(C)C3N)c(CO)nc1Sc1ccnc(N)c1Cl", "note": "(centres undefined)", "values": [{"measurement": "viability, T/C", "setting": "compound 0.1 µM", "value": "65% [middle of 4 runs]"}, {"measurement": "viability, T/C", "setting": "compound 0.316 µM", "value": "51% [middle of 4 runs]"}, {"measurement": "viability, T/C", "setting": "compound 1 µM", "value": "52.8% [middle of 4 runs]"}, {"measurement": "viability, T/C", "setting": "compound 3.16 µM", "value": "41.1% [middle of 4 runs]"}, {"measurement": "viability, T/C", "setting": "compound 10 µM", "value": "43.5% [middle of 4 runs]"}]}, {"smiles": "CCN1CCN(Cc2ccc(Nc3ncc(F)c(-c4cc(F)c5nc(C)n(C(C)C)c5c4)n3)nc2)CC1", "note": "+ CCn1c(-c2cc(N3CCN(C)CC3)cnc2C(C)OC)c2c3cc(ccc31)-c1csc(n1)CC(NC(=O)C1CC1C)C(=O)N1CCCC(N1)C(=O)OCC(C)(C)C2", "values": [{"measurement": "IC50", "setting": "second compound 0.000949 µM", "value": "< 3.16", "unit": "nM"}, {"measurement": "IC50", "setting": "second compound 0.003 µM", "value": "< 3.16", "unit": "nM"}, {"measurement": "IC50", "setting": "second compound 0.00949 µM", "value": "< 3.16", "unit": "nM"}, {"measurement": "IC50", "setting": "second compound 0.03 µM", "value": "< 3.16", "unit": "nM"}, {"measurement": "IC50", "setting": "second compound 0.0949 µM", "value": "< 3.16", "unit": "nM"}, {"measurement": "IC50", "setting": "second compound 0.3 µM", "value": "< 3.16", "unit": "nM"}, {"measurement": "viability, T/C", "setting": "second compound 0.000949 µM, first compound 0.00316 µM", "value": 34.5, "unit": "%"}, {"measurement": "viability, T/C", "setting": "second compound 0.000949 µM, first compound 0.01 µM", "value": 29.8, "unit": "%"}, {"measurement": "viability, T/C", "setting": "second compound 0.000949 µM, first compound 0.0316 µM", "value": 26.8, "unit": "%"}, {"measurement": "viability, T/C", "setting": "second compound 0.000949 µM, first compound 0.1 µM", "value": 29.4, "unit": "%"}, {"measurement": "viability, T/C", "setting": "second compound 0.000949 µM, first compound 0.316 µM", "value": 29.5, "unit": "%"}, {"measurement": "viability, T/C", "setting": "second compound 0.000949 µM, first compound 1 µM", "value": 43.6, "unit": "%"}, {"measurement": "viability, T/C", "setting": "second compound 0.003 µM, first compound 0.00316 µM", "value": 25.6, "unit": "%"}, {"measurement": "viability, T/C", "setting": "second compound 0.003 µM, first compound 0.01 µM", "value": 21.5, "unit": "%"}, {"measurement": "viability, T/C", "setting": "second compound 0.003 µM, first compound 0.0316 µM", "value": 21.9, "unit": "%"}, {"measurement": "viability, T/C", "setting": "second compound 0.003 µM, first compound 0.1 µM", "value": 22.6, "unit": "%"}, {"measurement": "viability, T/C", "setting": "second compound 0.003 µM, first compound 0.316 µM", "value": 25, "unit": "%"}, {"measurement": "viability, T/C", "setting": "second compound 0.003 µM, first compound 1 µM", "value": 34.7, "unit": "%"}, {"measurement": "viability, T/C", "setting": "second compound 0.00949 µM, first compound 0.00316 µM", "value": 18.7, "unit": "%"}, {"measurement": "viability, T/C", "setting": "second compound 0.00949 µM, first compound 0.01 µM", "value": 17.4, "unit": "%"}, {"measurement": "viability, T/C", "setting": "second compound 0.00949 µM, first compound 0.0316 µM", "value": 18.3, "unit": "%"}, {"measurement": "viability, T/C", "setting": "second compound 0.00949 µM, first compound 0.1 µM", "value": 16.3, "unit": "%"}, {"measurement": "viability, T/C", "setting": "second compound 0.00949 µM, first compound 0.316 µM", "value": 23.1, "unit": "%"}, {"measurement": "viability, T/C", "setting": "second compound 0.00949 µM, first compound 1 µM", "value": 28.6, "unit": "%"}, {"measurement": "viability, T/C", "setting": "second compound 0.03 µM, first compound 0.00316 µM", "value": 18.9, "unit": "%"}, {"measurement": "viability, T/C", "setting": "second compound 0.03 µM, first compound 0.01 µM", "value": 22.9, "unit": "%"}, {"measurement": "viability, T/C", "setting": "second compound 0.03 µM, first compound 0.0316 µM", "value": 17.6, "unit": "%"}, {"measurement": "viability, T/C", "setting": "second compound 0.03 µM, first compound 0.1 µM", "value": 17.3, "unit": "%"}, {"measurement": "viability, T/C", "setting": "second compound 0.03 µM, first compound 0.316 µM", "value": 21.8, "unit": "%"}, {"measurement": "viability, T/C", "setting": "second compound 0.03 µM, first compound 1 µM", "value": 31.1, "unit": "%"}, {"measurement": "viability, T/C", "setting": "second compound 0.0949 µM, first compound 0.00316 µM", "value": 19.7, "unit": "%"}, {"measurement": "viability, T/C", "setting": "second compound 0.0949 µM, first compound 0.01 µM", "value": 18.4, "unit": "%"}, {"measurement": "viability, T/C", "setting": "second compound 0.0949 µM, first compound 0.0316 µM", "value": 18.8, "unit": "%"}, {"measurement": "viability, T/C", "setting": "second compound 0.0949 µM, first compound 0.1 µM", "value": 17.9, "unit": "%"}, {"measurement": "viability, T/C", "setting": "second compound 0.0949 µM, first compound 0.316 µM", "value": 24.5, "unit": "%"}, {"measurement": "viability, T/C", "setting": "second compound 0.0949 µM, first compound 1 µM", "value": 31.4, "unit": "%"}, {"measurement": "viability, T/C", "setting": "second compound 0.3 µM, first compound 0.00316 µM", "value": 17.9, "unit": "%"}, {"measurement": "viability, T/C", "setting": "second compound 0.3 µM, first compound 0.01 µM", "value": 19.8, "unit": "%"}, {"measurement": "viability, T/C", "setting": "second compound 0.3 µM, first compound 0.0316 µM", "value": 20.9, "unit": "%"}, {"measurement": "viability, T/C", "setting": "second compound 0.3 µM, first compound 0.1 µM", "value": 19.1, "unit": "%"}, {"measurement": "viability, T/C", "setting": "second compound 0.3 µM, first compound 0.316 µM", "value": 25.9, "unit": "%"}, {"measurement": "viability, T/C", "setting": "second compound 0.3 µM, first compound 1 µM", "value": 33.5, "unit": "%"}]}]}
